Assay results: patent US11779649B2, “Antibodies to PMEL17 and conjugates thereof” (Novartis AG, priority 2018, dated 2023)
Like-named read-outs stand apart in the source and are kept apart here. Starred links: 1 amine or outer side, 2 acyl side, 3 side chain; linkers in the order of their positions; H or OH if unused. Positions of bridges follow the written chain, without caps; N, C: chain ends. Non-standard residues stand in square brackets, D forms with d. Residues, ends and D or L forms follow the SMILES beside them. *: point of attachment. Leu(3R-OH,Nα-propionyl) = CCC(=O)N[C@H](C(=O)*)[C@H](O)C(C)C; X1 = CC(C)[C@@H](O[*:3])[C@H](N[*:1])C(=O)[*:2]; NMeT = CN[C@H](C(=O)O)[C@@H](C)O; dPhLac = O=C(O)[C@H](O)Cc1ccccc1; NMeA = CN[C@@H](C)C(=O)O; NMeDha = C=C(NC)C(=O)O

Tests used:
[1] = system: 92.1 uveal melanoma; experiment: Resazurin-based viability assay, 92.1 uveal melanoma cells; assay type: cell-based
Method: (§1) Following drug treatment for 96 or 120 hours, cell viability and proliferation were determined using a resazurin-based viability assay. Briefly, cells were incubated with a resazurin-based solution and color change was detected by absorbance with a spectrophotometer and used as a readout of cell viability. Data presented as mean of 3 independent replicates and relative to PBS-treated cells (control).
as §1, with “(control) (FIG. 6).” for “(control).”
Following drug treatment for 96 or 120 hours, cell viability and proliferation were determined using a resazurin-based viability assay. Data presented as mean of 3 independent replicates and relative to PBS-treated cells (control) (FIG. 8).
as §1

[2] = Plasma stability of Compound (A1) in mouse, rat, monkey and human plasma compared to buffer; assay type: in vitro ADME; conditions: over 24 h, FIG. 4A-4B
Method: The plasma stability of Compound (A1) was investigated in mouse, rat, monkey and human plasma and compared to buffer. Both disappearance of Compound (A1) (FIG. 4A) as well as appearance of the ring-opened form of Compound (A1) having the structure of Compound (A4)
[drawing 153] (FIG. 4B) were monitored over 24 h.

[3] = system: MIAPACA pancreatic ductal adenocarcinoma cells; experiment: Resazurin-based viability assay, MIAPACA cells; assay type: cell-based; conditions: Homo sapiens, MIA PaCa-2, WT, 96 or 120 hours, Table 4
Method: as §1, with “92.1 uveal melanoma and MIAPACA pancreatic ductal adenocarcinoma cells were seeded at low cell density in 96-well plates and treated with increasing concentrations of Compound (A1) or Compound (A2) as indicated. Following” for “Following”

[4] = Stability in buffer at pH 5.6 and in lysosomes; assay type: in vitro ADME; conditions: buffer pH 5.6, lysosomes, 4 h, FIG. 5D
Method: In vitro stability of Compound (A2) was tested in plasma and blood from different species (FIG. 5A). […]

[5] = system: GNAQ/11; experiment: IP1 levels by TR-FRET in 92.1 uveal melanoma cells; assay type: cell-based; conditions: 92.1 cells, overnight treatment, FIG. 3A
Method: (§2) 92.1 uveal melanoma were treated with increasing concentrations of Compound (A1) or Compound (A2) as indicated. Following drug treatment overnight, cells were processed for determination of IP1 levels using TR-FRET (time-resolved fluorescent resonance energy transfer) or protein levels by western-blotting.
92.1 uveal melanoma were treated with DMSO, Compound (A1) (8 nM) and increasing concentrations of Isotype-(B1), anti-PMEL17-(B1) and anti-PMEL17-(B2) ADCs as indicated. Following drug treatment for 2 days, cells were processed for determination of IP1 levels using TR-FRET (time-resolved fluorescent resonance energy transfer). IP1 levels (nM) are presented as mean of 3 independent replicates.

[6] = system: ERK signaling; experiment: Western-blotting of 92.1 cells, ERK signaling; assay type: cell-based; conditions: FIG. 3C
Method: as §2

[7] = PK of Compound (A1) after intravenous dosing in mouse; assay type: in vivo; conditions: for Vd: read-out: Vss
From the text: Table 5 summarizing all PK values is shown below.

[8] = system: 92.1 cells; experiment: Annexin V flow cytometry apoptosis assay, 92.1 cells; assay type: cell-based; conditions: 92.1 and MIAPACA cells, FIG. 2
Method: (§3) 92.1 and MIAPACA cells were seeded in 96-well plates (5000 cells per well) and treated with increasing concentrations of Compound (A1), Compound (A2), and a fixed dose of Staurosporine (100 nM, positive control) as indicated. Following drug treatment for 96, cells were subjected to fluorescence-activated flow cytometry using an Annexin V antibody conjugated to a fluorescent dye. Data presented as mean of 3 independent replicates.
as §3, with “92.1” for “92.1 and MIAPACA”, “3207-(B1) (Isotype control), G4-(B1),” for “Compound (A2),”, “G1-(B1)” for “a fixed dose of Staurosporine (100 nM, positive control)”

[9] = system: Human Platelet Rich Plasma (PRP); conditions: human PRP, 0.1, 1 and 150 nM, 4, 16 or 24 h, TRAP6 32 uM, FIG. 11
Method: Platelet aggregation was then measured following treatment with Thrombin Receptor Activating Peptide 6 (TRAP6) at 32 uM.

[10] = system: 92.1-luciferase subcutaneous xenografts; experiment: 92.1-luciferase subcutaneous xenograft tumor growth in female nude mice; assay type: in vivo
Method: Treatment (single dose i.v. injection) was performed 17 days post tumor inoculation. Values are mean±SEM; sample size, (n=5-12 mice per group). Initial tumor volume at day 0 was approximately 200-250 mm^3.
Treatments (single dose i.v. injection) were performed 17 days post tumor inoculation. Values represent mean±SEM; sample size, (n=5-6 mice per group). Initial tumor volume at day 0 was approximately 300-325 mm^3. (FIG. 16).
Treatment (single dose i.v. injection) was performed 14-17 days post tumor inoculation. Values are mean±SEM; sample size, (n=5-12 mice per group). Initial tumor volume at day 0 was approximately 200-250 mm3.

[11] = Exposure of ADC formats in an in vivo efficacy study and payload ring-opening on the antibody; design: species or system mice; conditions: formats of G1-(B1), in vivo efficacy study, FIG. 14D
From the text: [drawing 156] (filled circles) while being conjugated to the antibody was shown in vivo in mice (FIG. 14C). […] From comparing the PK of the non-targeted 3207-ADCs (FIG. 14E) one can deduce that the Fc-silencing has a significant effect on lowering the clearance of the DAR4 format.

Molecule: C=C1C(=O)N[C@@H](C)C(=O)N(C)[C@@H](C)C(=O)N[C@@H]([C@H](OC(=O)[C@@H](NC(=O)CC)[C@H](O)C(C)C)C(C)C)C(=O)N(C)[C@@H]([C@@H](C)OC)C(=O)O[C@H](C(C)C)[C@H](NC(C)=O)C(=O)O[C@H](Cc2ccccc2)C(=O)N1C [Compound (A1), (R)-1-((3S,6S,9S,12S,18R,21S,22R)-21-acetamido-18-benzyl-22-isopropyl-3-((R)-1-methoxyethyl)-4,9,10,12,16-pentamethyl-15-methylene-2,5,8,11,14,17,20-heptaoxo-1,19-dioxa-4,7,10,13,16-pentaazacyclodocosan-6-yl)-2-methylpropyl (2S,3R)-3-hydroxy-4-methyl-2-propionamidopentanoate] (Ac-[X1][dPhLac][NMeDha]A[NMeA][X1](Leu(3R-OH,Nα-propionyl))[NMeT](Me); ester 1-C)
- GI50 ([1]; 92.1, GNAQ^Q209L, 96 or 120 hours, Table 4, read-out: GI50): 0.18 nM
- GI50 ([1]; 92.1 GNAQ^Q209L, Table 1, read-out: GI50 (nM) 92.1GNAQ^Q209L): 0.467 nM
- anti-UM activity ([1]; 92.1 vs MIAPACA, FIG. 1): potent target-dependent anti-UM activity
- transformation of Compound (A1) to ring-opened form in plasma [2]: slightly faster in human plasma
- GI50 [3]: > 10 µM
- stability in buffer and lysosomes [4]: stable in buffer at pH 5.6 and in lysosomes over 4 h
- IP1 levels [5]: reduced IP1 levels
- ERK signaling (immunoblots) [6]: reduced ERK signaling
- AUCinf/D (nM*h/(mg/kg)) ([7]; 0.2 mg/kg): 82 nM*h/(mg/kg)
- C0/D (nM/(mg/kg)) ([7]; 0.2 mg/kg): 217 nM/(mg/kg)
- Cmax/D (nM/(mg/kg)) ([7]; 0.2 mg/kg): 156 nM/(mg/kg)
- AUCinf/D (nM*h/(mg/kg)) ([7]; 0.4 mg/kg): 118 nM*h/(mg/kg)
- C0/D (nM/(mg/kg)) ([7]; 0.4 mg/kg): 270 nM/(mg/kg)
- Cmax/D (nM/(mg/kg)) ([7]; 0.4 mg/kg): 208 nM/(mg/kg)
- AUCinf/D (nM*h/(mg/kg)) ([7]; 0.8 mg/kg): 171 nM*h/(mg/kg)
- C0/D (nM/(mg/kg)) ([7]; 0.8 mg/kg): 475 nM/(mg/kg)
- Cmax/D (nM/(mg/kg)) ([7]; 0.8 mg/kg): 300 nM/(mg/kg)
- exposure with dose ([7]; 0.2-0.8 mg/kg): slightly over-proportional increase of exposure with dose
- clearance ([7]; FIG. 4D): very high clearance
- volume of distribution ([7]; FIG. 4D): moderate to high volume of distribution
- AUC(0-inf) ([7]; in vivo, 0.2 mg/kg): 0.016 µM·h
- C0 ([7]; in vivo, 0.2 mg/kg): 43 nM
- Cmax ([7]; in vivo, 0.2 mg/kg): 31 nM
- clearance ([7]; in vivo, 0.2 mg/kg, read-out: CL): 204 mL/min/kg
- Vd ([7]; in vivo, 0.2 mg/kg): 8.6 L/kg
- AUC(0-inf) ([7]; in vivo, 0.4 mg/kg): 0.047 µM·h
- C0 ([7]; in vivo, 0.4 mg/kg): 108 nM
- Cmax ([7]; in vivo, 0.4 mg/kg): 83 nM
- clearance ([7]; in vivo, 0.4 mg/kg, read-out: CL): 141 mL/min/kg
- Vd ([7]; in vivo, 0.4 mg/kg): 4.9 L/kg
- AUC(0-inf) ([7]; in vivo, 0.8 mg/kg): 0.137 µM·h
- C0 ([7]; in vivo, 0.8 mg/kg): 380 nM
- Cmax ([7]; in vivo, 0.8 mg/kg): 240 nM
- clearance ([7]; in vivo, 0.8 mg/kg, read-out: CL): 97 mL/min/kg
- Vd ([7]; in vivo, 0.8 mg/kg): 4.6 L/kg
- apoptosis (Annexin V) [8]: induced apoptosis in UM cells in GNAQ/11 dependent manner
- platelet aggregation after TRAP6 [9]: induced platelet aggregation

B1: G1-E152C-DAR2-(B1) (conjugate)
heavy: QVQLVQSGAEVKKPGSSVKVSCKASGGTFSDYAITWVRQAPGQGLEWMGGIIPIFGTANYAQKFQGRVTITADESTSTAYMELSSLRSEDTAVYYCAREGGLLTDISYSRYWFAYWGQGTLVTVSS
light: DIELTQPPSVSVSPGQTASITCSGDALRDKFVYWYQQKPGQAPVLVIYDDNNRPSGIPERFSGSNSGNTATLTISGTQAEDEADYYCQSWDHSYSLVVFGGGTKLTVLGQPKAAPSVTLFPPSSEELQANKATLVCLISDFYPGAVTVAWKADSSPVKAGVETTTPSKQSNNKYAASSYLSLTPEQWKSHRSYSCQVTHEGSTVEKTVAPTECS
modifications: left off: a dimerising Fc or GST
- GI50 ([1]; 92.1, Table 10, read-out: GI50): 0.365 nM
- antitumor activity ([10]; 7.5 mg/kg single dose i.v., FIG. 16): comparable antitumor activity
- clearance / exposure of ADC formats [11]: lowest clearance

B2: Fc Silent G1-3J-DAR2 (E152C)-(B1) (conjugate)
heavy: QVQLVQSGAEVKKPGSSVKVSCKASGGTFSDYAITWVRQAPGQGLEWMGGIIPIFGTANYAQKFQGRVTITADESTSTAYMELSSLRSEDTAVYYCAREGGLLTDISYSRYWFAYWGQGTLVTVSS
light: SYELTQPLSVSVALGQTARITCSGDALRDKFVYWYQQKPGQAPVLVIYDDNNRPSGIPERFSGSNSGNTATLTISRAQAGDEADYYCQSWDHSYSLVVFGGGTKLTVLGQPKAAPSVTLFPPSSEELQANKATLVCLISDFYPGAVTVAWKADSSPVKAGVETTTPSKQSNNKYAASSYLSLTPEQWKSHRSYSCQVTHEGSTVEKTVAPTECS
modifications: left off: a dimerising Fc or GST
- GI50 ([1]; 92.1, Table 10, read-out: GI50): 0.278 nM
- tumor growth ([10]; single i.v. injection, FIG. 18): inhibited tumor growth in a dose-dependent manner
